Results: publication PMC12748266, “Testing antimicrobial peptides inhibiting protein synthesis in living E. coli and K. pneumoniae using bio-orthogonal non-canonical amino-acid tagging” (Frontiers in Microbiology, 2025)
Values after ≈ are worked out from the molar mass of the structure shown. Like-named read-outs stand apart in the source and are kept apart here. Marks after values point to notes of the source that are not given here.

How the values were obtained:
E. coli ATCC 25922 [1] = experiment: Cell membrane permeabilization, propidium iodide flow cytometry; type: cell-based, Escherichia coli; details: for Membrane permeabilization (% PI +cells): compound at its MIC, 40 min, 5 × 10^6 CFU/mL, supplemented M9, mean of n = 3
Procedure: (§1) Membrane permeabilization of bacteria was then assessed by incubating bacteria at 37 °C, in a final volume of 1 mL, with varying concentrations of each peptide or antibiotic used for the BONCAT assay. 5 min before the ending of the selected incubation time (40 min), propidium iodide probe was added to the samples to a final concentration of 10 μg/mL before analysis using a flow cytometer. A positive control consisted of E. coli cells dehydrated with ethanol (as described above), while untreated cells were used as negative control. The fluorescence of untreated cells was used to establish the gating for positive PI-stained cells. Fixed bacterial cells, subjected to the click chemistry reaction to link the Alexa Fluor azide 488 probe, were analysed by flow cytometry and, among the gates-selected ones, only those that tested positive for Propidium Iodide, and thus permeabilized, were considered for the calculation of the mean fluorescence intensity (MFI) of the Alexa Fluor azide 488.
(§2) Samples were analyzed by an Attune NxT® (ThermoFisher) equipped with a blue laser (488 nm) and photomultiplier tubes (PMTs) BL1 (525/50) and BL3 (695/40) to collect fluorescence. All parameters were set in logarithmic scale and the signals were recorded as Area. Forward scattering (FSC) was set to 300 mV, side scattering (SSC) to 350 mV and thresholds to 0.2 for FSC and 0.5 for SSC. The compensation matrix was performed according to the tool software. Hierarchical gates and acquisition flow rate (200 μL/min) were set to avoid coincident events. The files were saved as FCS 3.1 and analysed by FCS Express De Novo software v7. Flow cytometry data are presented as means ± SD from three independent experiments (n = 3).

[2] = system: K. pneumoniae ATCC 700603; experiment: as above; type: cell-based, Klebsiella pneumoniae; details: compound at its MIC, 40 min, 5 × 10^6 CFU/mL, supplemented M9; mean of n = 3
Procedure: as §1, with “An overnight culture of E. coli ATCC 25922, or of K. pneumoniae ATCC 700603, prepared as described above, was diluted to a final concentration of 5 × 10^6 CFU/mL and allowed to adjust for 30 min at 37 °C under shaking. Membrane” for “Membrane”
as §2

E. coli ATCC 25922 [3] = experiment: microbe, parasite or virus in culture; type: cell-based, Escherichia coli; details: for MIC: 18 h, 37 °C, mode of at least three experiments
Procedure: […] Each peptide, diluted at a starting concentration of 128 μM in supplemented M9 medium was added to the first column of wells of a 96-well round-bottom microplate (Sarstedt, Milan, Italy). Serially two-fold dilution (1:1) were performed across subsequent wells to a final volume of 50 μL. 50 μL of bacterial suspension (1 × 10^7 CFU/mL) were then added to each well, to a final bacterial concentration in each well to 5 × 10^6 CFU/mL per well. Untreated bacterial culture was used as growth control, while 100 μL of uninoculated supplemented M9 medium was used to verify the sterility of the medium. The plates were sealed with parafilm to minimize evaporation and incubated at 37 °C for 18 h. The minimum inhibitory concentration (MIC) was visually determined as the lowest peptide concentration in a well with no visible bacterial growth. Data are reported as the mode of at least three independent experiments.

E. coli ATCC 25922 [4] = experiment: BONCAT: HPG incorporation into newly synthesized proteins, flow cytometry; type: cell-based, Escherichia coli; details: compound at MIC; for Fluorescence Intensity (% of Control): 10 min pre-incubation then 30 min HPG, untreated = 100%, mean, n ≥ 3; for Decrease in fluorescence compared to untreated bacteria: 40 min total incubation (10 min + 30 min HPG)
Procedure: (§3) We used a modified protocol from [Lindivat et al. (2020)]. Briefly, overnight cultures of E. coli ATCC 25922 or K. pneumoniae ATCC 700603, prepared as described above, were diluted to a final concentration of 5×10^6 CFU/mL and allowed to adjust for 30 min at 37 °C. The culture was then incubated at 37 °C in the dark for 10 or 30 min in the presence or absence of each peptide or antibiotic at various concentrations, with a final volume of 1 mL. At this point, only in certain specified experimental assays, the compounds were removed from the supernatant by centrifugation (16,000 × g for 5 min) and bacteria were washed and resuspended in fresh supplemented M9 medium. Then, 32 μL of a 500 μM homopropargylglycine (HPG) solution were added to each sample, resulting in a final concentration of 16 μM in a finale volume of 1 mL. Also included in each assay were two untreated controls containing only bacteria and bacteria treated with 16 μM HPG alone, respectively. All samples were then incubated at 37 °C in the dark for 30 min. After incubation, samples were washed once with 1X filtered Phosphate Buffered Saline (PBS) (centrifuged at 16,000 x g for 5 min) and resuspended in PBS. After washing, samples were fixed with formaldehyde (Sigma Aldrich, USA) to a final concentration of 3% in 1 mL for 1 h at 25 °C. Subsequently, the samples were centrifuged at 16,000 x g for 5 min and resuspended in 1 mL of PBS. If not analysed immediately, the fixed samples were stored at 4 °C prior to performing the click chemistry reaction. Samples were centrifugated at 16,000 x g for 5 min and bacteria cells were dehydrated by ethanol that was added sequentially to achieve a final concentration of 50% (v/v) (3 min of incubation), 80% (v/v) (3 min of incubation), and 95% (v/v) (3 min of incubation). After dehydration, the samples were centrifugated (16,000 × g, 5 min) and resuspended in PBS. For cell analysis by SDS-PAGE, the following variations were implemented: bacterial cells were diluted in supplemented M9 medium to a final density of ~ 1 × 10^9 CFU/mL, and HPG was added to the samples at a final concentration of 160 μM. Bacteria were incubated with HPG for 0, 15, 30, 60, or 120 min at 37 °C in the dark.
(§4) The click reaction was carried out according to [Rostovtsev et al. (2002)]. 15 μL of a pre-mix solution (prepared as described above) were added to each sample containing fixed bacteria that had incorporated HPG (30 μL of pre-mix solution in case of samples prepared for SDS-PAGE analysis), resulting in the following final concentrations in each sample: 0.1 mM copper sulfate, 0.5 mM Tris (3-hydroxypropyltriazolylmethyl)amine (THPTA), and 2.5 μM Alexa Fluor azide 488. Additionally, 50 μL of freshly prepared 100 mM sodium ascorbate and 50 μL of 100 mM aminoguanidine were added (100 μL in case of samples prepared for SDS-PAGE analysis), bringing the final volume to 1 mL. The samples were gently inverted once to mix and incubated for 30 min in the dark at 25 °C. Finally, each sample was washed with PBS once (centrifuged at 16,000 × g for 5 min) and resuspended in 1 mL PBS.
An overnight culture of E. coli ATCC 25922, or of K. pneumoniae ATCC 700603, prepared as described above, was diluted to a final concentration of 5 × 10^6 CFU/mL and allowed to adjust for 30 min at 37 °C under shaking. Membrane permeabilization of bacteria was then assessed by incubating bacteria at 37 °C, in a final volume of 1 mL, with varying concentrations of each peptide or antibiotic used for the BONCAT assay. 5 min before the ending of the selected incubation time (40 min), propidium iodide probe was added to the samples to a final concentration of 10 μg/mL before analysis using a flow cytometer. A positive control consisted of E. coli cells dehydrated with ethanol (as described above), while untreated cells were used as negative control. The fluorescence of untreated cells was used to establish the gating for positive PI-stained cells. […]

E. coli ATCC 25922 [5] = experiment: Post-antibiotic effect (PAE), growth kinetics after washout; type: cell-based, Escherichia coli; details: 30 min treatment at MIC, OD600 every hour for 18 h in MHB, mean ± SD, n = 3
Procedure: An overnight culture of E. coli ATCC 25922, prepared as described above, was diluted to a final concentration of 5 × 10^6 CFU/mL and then incubated at 37 °C for 30 min in the presence or absence of each peptide or antibiotic at various concentrations, with a final volume of 1 mL. To measure the post-antibiotic effect (PAE) of antimicrobials, the compounds were removed from the supernatant by centrifugation (16,000 × g for 5 min) and bacteria were washed and resuspended in 1 mL of fresh supplemented MHB medium, to promote faster growth visible as increased absorbance. 200 μL of each sample was then transferred to a 96-well round-bottom microplate (Sarstedt, Milan, Italy), which was then placed in a Nanoquant Infinite-M200Pro plate reader with stable temperature at 37 °C. Each sample was surrounded by water-filled wells to reduce its own evaporation. Optical density at 600 nm was then recorded for each sample every hour for up to 18 h. PAE was calculated according to [Holfeld et al. (2018)] as the difference between the time needed for a cell culture incubated with an antibiotic substance to reach half-maximum absorbance of the control culture and the time that the control culture needed to reach half-maximum absorbance of the stationary phase. According to this definition, the PAE of each compound (expressed as time) was calculated based on the OD₆₀₀ value of its respective replicate, which corresponded to half of the maximum absorbance reached by the control culture in the stationary phase (at 18 h). The mean PAE values (PAE in hours) of each compound, were obtained by averaging the times from the three independent experiments.

[6] = system: K. pneumoniae ATCC 700603; experiment: microbe, parasite or virus in culture; type: cell-based, Klebsiella pneumoniae; details: for MIC: 18 h, 37 °C, mode of at least three experiments
Procedure: […] […] Serially two-fold dilution (1:1) were performed across subsequent wells to a final volume of 50 μL. […] […] The plates were sealed with parafilm to minimize evaporation and incubated at 37 °C for 18 h. The minimum inhibitory concentration (MIC) was visually determined as the lowest peptide concentration in a well with no visible bacterial growth. Data are reported as the mode of at least three independent experiments.

[7] = system: K. pneumoniae ATCC 700603; experiment: BONCAT: HPG incorporation into newly synthesized proteins, flow cytometry; type: cell-based, Klebsiella pneumoniae; details: compound at MIC, 10 min pre-incubation then 30 min HPG; untreated = 100%; mean, n ≥ 3
Procedure: as §3
as §4, with “Finally, each sample was washed with PBS once (centrifuged at 16,000 × g for 5 min) and resuspended in 1 mL PBS.” left out
An overnight culture of E. coli ATCC 25922, or of K. pneumoniae ATCC 700603, prepared as described above, was diluted to a final concentration of 5 × 10^6 CFU/mL and allowed to adjust for 30 min at 37 °C under shaking. Membrane permeabilization of bacteria was then assessed by incubating bacteria at 37 °C, in a final volume of 1 mL, with varying concentrations of each peptide or antibiotic used for the BONCAT assay. […] The fluorescence of untreated cells was used to establish the gating for positive PI-stained cells. […]

[8] = Mueller Hinton, 2,5x10^5 CFU/mL

`CCO` [Ethanol] was tested, and the “Membrane permeabilization (% PI +cells)” value (E. coli ATCC 25922 [1]) was 78%, the “Membrane permeabilization (% PI +cells)” value (E. coli ATCC 25922 [1]; listed as EtOH) was 78% and the “Membrane permeabilization (% PI +cells)” value [2] was 96%.
For `CCn1cc(C(=O)O)c(=O)c2ccc(C)nc21` [NDX, Nalidixic Acid], the MIC (E. coli ATCC 25922 [3]; Escherichia coli, ATCC25922, 18 h, supplemented M9 medium, 5 × 10^6 CFU/mL, visual, read-out: MIC) was 16 µM (≈ 3.72 µg/mL), the “Membrane permeabilization (% PI +cells)” value (E. coli ATCC 25922 [1]) was less than 1% and the “Fluorescence Intensity (% of Control)” value (E. coli ATCC 25922 [4]) was 107 % of Control. For the same compound, the “Decrease in fluorescence compared to untreated bacteria” value (E. coli ATCC 25922 [4]) was “did not affect fluorescence intensity” and the PAE (E. coli ATCC 25922 [5]) was 0.8 ± 0.4 h.
`CN(C)[C@@H]1C(O)=C(C(N)=O)C(=O)[C@@]2(O)C(O)=C3C(=O)c4c(O)cccc4[C@@](C)(O)[C@H]3C[C@@H]12` [TET, tetracycline] was tested, and the MIC ([6]; Klebsiella pneumoniae, ATCC700603, supplemented M9 medium, 5 × 10^6 CFU/mL, visual) was 32 µM (≈ 14.2 µg/mL), the “Membrane permeabilization (% PI +cells)” value [2] was less than 1% and the “Fluorescence Intensity (% of Control)” value [7] was 37 % of Control.
Colistin was tested, and the “Fold increase in MIC on 20-fold increase in cell density” value (E. coli ATCC 25922 [3]; MHB, 5×10^6 vs 2,5×10^5 CFU/well) was 4-8 fold, the MIC (E. coli ATCC 25922 [3]; [8]) was 0,5 * µM and the MIC (E. coli ATCC 25922 [3]; Mueller Hinton, 5x10^6 CFU/mL, read-out: MIC) was 4 µM. The “Fold increase in MIC in M9 medium compared to MHB” value (E. coli ATCC 25922 [3]; same bacterial concentration) was 2-4 fold, the MIC (E. coli ATCC 25922 [3]; supplemented M9 medium, 5 × 10^6 CFU/mL, visual, read-out: MIC) was 16 µM and the MIC [6, 8] was 1 µM. The “Fold increase in MIC, BONCAT conditions vs standard conditions” value ([6]; supplemented M9 5×10^6 CFU/well vs MHB 2,5×10^5 CFU/well) was 16 fold, the MIC ([6]; supplemented M9 medium, 5 × 10^6 CFU/mL, visual) was 16 µM and the “Permeabilized cells (PI+)” value (E. coli ATCC 25922 [1]; colistin 0,5 µM (MIC) at 2,5x10^5 CFU/mL, 40 minutes of incubation) was “around 50%”. For the same compound, the “Membrane permeabilization (% PI +cells)” value (E. coli ATCC 25922 [1]) was 1%, the “Membrane permeabilization (% PI +cells)” value (E. coli ATCC 25922 [1]; listed as Colistin) was 1% and the “Membrane permeabilization (% PI +cells)” value (E. coli ATCC 25922 [1]; listed as colistin) was “no membrane permeabilization”. For the same compound, the “Fluorescence Intensity (% of Control)” value (E. coli ATCC 25922 [4]) was 87 % of Control and the “Decrease in fluorescence compared to untreated bacteria” value (E. coli ATCC 25922 [4]) was “nor decreased bacterial fluorescence”.
